Active and inactive are the calls of the source.
What was measured:
[1] = target: Tumor necrosis factor (Homo sapiens, UniProt P01375); experiment: analog potency on TNFa NF-kB signaling – cell-based, revised, SAR follow-up (AID 2337); format: functional
[2] = target: Nucleotide-binding oligomerization domain-containing protein 1 (Homo sapiens, UniProt Q9Y239); experiment: blockers of NOD1 pathway activity – revised, SAR follow-up (AID 2333); format: functional
[3] = tested on: HEK293; experiment: cells; conditions: Homo sapiens
[4] = tested on: Streptococcus sp. 'group A'; experiment: Streptococcus pyogenes SK(-)GAS viability under kanamycin – luminescence, BacTiterGlo, confirmation, counter-screen for streptokinase expression inhibitor project, dose response (AID 1900); format: functional, organism-based
[5] = target: T1, Streptokinase A (Streptococcus pyogenes serotype M1, UniProt P10520); experiment: viability-normalized secreted streptokinase activity reduction – plasminogen activation absorbance, OD405, dose response (AID 1914); format: functional, Streptococcus pyogenes M1 GAS;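 note: secreted streptokinase activity via plasminogen activation per viability signal from cell pellet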
T1 sequence (P10520 whole entry): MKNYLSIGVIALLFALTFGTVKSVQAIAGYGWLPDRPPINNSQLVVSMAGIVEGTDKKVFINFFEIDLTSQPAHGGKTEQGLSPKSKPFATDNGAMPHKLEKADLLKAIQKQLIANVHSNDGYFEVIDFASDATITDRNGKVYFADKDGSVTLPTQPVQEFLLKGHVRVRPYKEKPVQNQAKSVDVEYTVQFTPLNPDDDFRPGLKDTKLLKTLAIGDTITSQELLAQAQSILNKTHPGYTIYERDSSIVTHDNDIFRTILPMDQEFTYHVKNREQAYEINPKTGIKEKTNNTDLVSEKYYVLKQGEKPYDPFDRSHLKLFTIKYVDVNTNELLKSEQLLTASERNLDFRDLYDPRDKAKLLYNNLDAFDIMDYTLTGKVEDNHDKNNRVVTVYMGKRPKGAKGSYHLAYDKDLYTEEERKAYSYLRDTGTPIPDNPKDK

[6] = target: Ion channel NompC (Danio rerio, UniProt Q7T1G6); experiment: Dose response cell-based high-throughput screening assay for agonists of the transient receptor potential channel N1 (TRPN1). [Related pubchem assays (depositor defined):AID1424, AID1448]; format: functional
[7] = CCR5-tropic HIV-1 fusion blockers – cell-based, CCR5-tropic Env, dose response (AID 2279); format: functional
[8] = target: T2, Mucolipin-3 (Homo sapiens, UniProt Q8TDD5); experiment: Fluorescence counterscreen assay for […] agonists: dose response cell-based high-throughput screening assay to identify agonists of the transient receptor potential channel ML3 (TRPML3). [Related pubchem assays: 1424, 1448 ]; format: functional
T2 sequence (Q8TDD5 whole entry): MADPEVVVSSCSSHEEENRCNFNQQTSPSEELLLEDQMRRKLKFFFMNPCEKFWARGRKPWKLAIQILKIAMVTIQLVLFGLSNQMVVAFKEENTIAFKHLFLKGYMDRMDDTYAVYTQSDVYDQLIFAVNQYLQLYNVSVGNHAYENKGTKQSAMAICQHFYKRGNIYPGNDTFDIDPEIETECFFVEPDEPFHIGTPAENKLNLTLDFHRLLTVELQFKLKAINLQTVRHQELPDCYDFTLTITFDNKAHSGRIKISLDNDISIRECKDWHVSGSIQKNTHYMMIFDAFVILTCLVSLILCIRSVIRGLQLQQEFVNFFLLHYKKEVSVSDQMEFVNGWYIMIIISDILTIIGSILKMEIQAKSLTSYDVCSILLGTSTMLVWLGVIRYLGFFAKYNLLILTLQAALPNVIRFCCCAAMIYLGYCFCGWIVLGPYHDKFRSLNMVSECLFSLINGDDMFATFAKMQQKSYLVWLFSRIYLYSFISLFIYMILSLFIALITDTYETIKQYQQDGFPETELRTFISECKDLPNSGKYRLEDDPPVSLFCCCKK

[9] = tested on: Streptococcus; experiment: GAS UMAA2166 growth inhibition – luminescence, BacTiterGlo, counter-screen for streptokinase expression inhibitor project, dose response (AID 1915); format: functional, organism-based;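 note: potency for reduction of bacterial viability or growth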
[10] = Luminescence Cell-Based Dose Retest to Confirm Inhibitors of Cancer Stem Cells. [Related pubchem assays (depositor defined):AID2717, AID2721]; format: functional; conditions: Homo sapiens
[11] = reduction of Shn3 3'UTR-driven luciferase in osteoblasts – cell-based, Clone20 osteoblasts, firefly luciferase, cherry-picked, dose response (AID 624132); format: functional;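 note: firefly luciferase luminescence from reporter carrying the Shn3 3'UTR in osteoblasts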
[12] = loss of viability in HepG2 cells – cell-based, CellTiter-Glo, cherry-picked, cytotoxicity control for Shn3 inhibitor project, dose response (AID 624134); format: functional
[13] = non-specific 3'UTR reporter inhibition in Clone20-Shn3RL – cell-based, Renilla luciferase, cherry-picked, counter-screen for Shn3 inhibitor project, dose response (AID 624133); format: functional
[14] = tested on: HEK293; experiment: inhibition of NOD1-driven NF-kB reporter – cell-based, luminescence, uHTS, primary screen (AID 1578); format: functional; conditions: Homo sapiens
[15] = tested on: HEK293; experiment: cells; format: functional, cell-based; conditions: Homo sapiens
[16] = tested on: HEK293; experiment: cells; format: functional, cell-based; conditions: Homo sapiens; remark: listed apart in the source
[17] = tested on: HEK293; experiment: NOD2 signaling inhibitors in MDP-stimulated cells, cell-based, uHTS, luminescence (AID 2001); format: functional; conditions: Homo sapiens
[18] = tested on: HEK293; experiment: cells; format: functional, cell-based; conditions: Homo sapiens; remark: listed apart in the source
[19] = decrease of insulin promoter-GFP reporter – imaging, high-content screening, mouse beta cells (AID 1628); format: functional; conditions: MIN6
[20] = cells; format: functional, cell-based
[21] = MIN6 cell viability loss – mouse insulinoma, cytotoxicity control, dose response (AID 2122); format: functional;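 note: confirmatory high-throughput counterscreen run to flag cytotoxic compounds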
[22] = Trypanosoma cruzi growth suppression in host cells – NIH3T3 host cells, beta-gal luminescence, confirmation (AID 2044); format: functional, cell-based;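 note: intracellular parasites grown in NIH/3T3 mouse fibroblasts as host cells; luminescent beta-galactosidase reporter signal from transgenic T. cruzi replicating inside host cells; inhibitors lower the luminescence signal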
[23] = cells; format: functional, cell-based; remark: listed apart in the source
[24] = target: Troponin, cardiac muscle (Homo sapiens, UniProt P19429+P45379+P63316); experiment: Fluorescence-based biochemical high throughput dose response assay for activators of the calcium sensitivity of cardiac Regulated Thin Filaments (RTF). [Related pubchem assays (depositor defined):AID493008, AID493018, AID504382, AID504383]; format: protein-complex assay
[25] = target: Lysine-specific demethylase 4C (Homo sapiens, UniProt Q9H3R0); experiment: inhibition of JMJD2C H3K9me3 demethylation – biochemical, DELFIA europium, cherry-picked samples, dose response (AID 488835); format: functional
[26] = target: G-protein coupled receptor 55 (Homo sapiens, UniProt Q9Y2T6); experiment: blockers of GPR55 signalling, imaged – imaging, image-based, counter-screen for GPR35 antagonist project, SAR follow-up (AID 2397); format: functional
[27] = target: T3, Replicative DNA helicase DnaB (Mycobacterium tuberculosis, UniProt P9WMR3); experiment: DnaB intein splicing inhibitors, dose response, biochemical, cell-free fluorescence (AID 449749); format: functional
T3 sequence (P9WMR3 whole entry): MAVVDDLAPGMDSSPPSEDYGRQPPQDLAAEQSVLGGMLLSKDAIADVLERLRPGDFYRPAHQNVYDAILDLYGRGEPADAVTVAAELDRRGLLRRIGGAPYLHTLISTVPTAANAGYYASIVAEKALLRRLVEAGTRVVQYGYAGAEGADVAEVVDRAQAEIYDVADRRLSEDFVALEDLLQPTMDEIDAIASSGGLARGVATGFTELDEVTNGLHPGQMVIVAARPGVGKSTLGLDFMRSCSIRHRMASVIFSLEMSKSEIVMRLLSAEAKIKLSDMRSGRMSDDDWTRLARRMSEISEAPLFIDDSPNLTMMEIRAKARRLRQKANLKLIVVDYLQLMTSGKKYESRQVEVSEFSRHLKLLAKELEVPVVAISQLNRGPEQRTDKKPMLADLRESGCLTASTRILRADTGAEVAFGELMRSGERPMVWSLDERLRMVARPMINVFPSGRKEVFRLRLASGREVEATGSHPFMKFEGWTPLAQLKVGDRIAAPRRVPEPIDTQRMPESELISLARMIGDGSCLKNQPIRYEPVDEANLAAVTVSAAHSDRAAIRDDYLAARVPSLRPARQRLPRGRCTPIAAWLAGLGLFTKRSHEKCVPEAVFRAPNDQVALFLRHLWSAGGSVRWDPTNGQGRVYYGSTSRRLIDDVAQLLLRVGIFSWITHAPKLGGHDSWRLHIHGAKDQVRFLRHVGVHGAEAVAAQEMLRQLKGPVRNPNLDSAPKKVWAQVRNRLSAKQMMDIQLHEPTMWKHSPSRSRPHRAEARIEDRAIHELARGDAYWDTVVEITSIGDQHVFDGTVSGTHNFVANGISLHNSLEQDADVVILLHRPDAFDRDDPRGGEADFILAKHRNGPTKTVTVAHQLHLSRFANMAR

[28] = target: T4, Protein RecA (Mycobacterium tuberculosis, UniProt P9WHJ3); experiment: Fluorescence Cell-Free Homogeneous Dose Retest to Identify Inhibitors of RecA-Intein Splicing Activity. [Related pubchem assays (depositor defined):AID2097, AID2223, AID489010, AID492950]; format: functional
T4 sequence (P9WHJ3 whole entry): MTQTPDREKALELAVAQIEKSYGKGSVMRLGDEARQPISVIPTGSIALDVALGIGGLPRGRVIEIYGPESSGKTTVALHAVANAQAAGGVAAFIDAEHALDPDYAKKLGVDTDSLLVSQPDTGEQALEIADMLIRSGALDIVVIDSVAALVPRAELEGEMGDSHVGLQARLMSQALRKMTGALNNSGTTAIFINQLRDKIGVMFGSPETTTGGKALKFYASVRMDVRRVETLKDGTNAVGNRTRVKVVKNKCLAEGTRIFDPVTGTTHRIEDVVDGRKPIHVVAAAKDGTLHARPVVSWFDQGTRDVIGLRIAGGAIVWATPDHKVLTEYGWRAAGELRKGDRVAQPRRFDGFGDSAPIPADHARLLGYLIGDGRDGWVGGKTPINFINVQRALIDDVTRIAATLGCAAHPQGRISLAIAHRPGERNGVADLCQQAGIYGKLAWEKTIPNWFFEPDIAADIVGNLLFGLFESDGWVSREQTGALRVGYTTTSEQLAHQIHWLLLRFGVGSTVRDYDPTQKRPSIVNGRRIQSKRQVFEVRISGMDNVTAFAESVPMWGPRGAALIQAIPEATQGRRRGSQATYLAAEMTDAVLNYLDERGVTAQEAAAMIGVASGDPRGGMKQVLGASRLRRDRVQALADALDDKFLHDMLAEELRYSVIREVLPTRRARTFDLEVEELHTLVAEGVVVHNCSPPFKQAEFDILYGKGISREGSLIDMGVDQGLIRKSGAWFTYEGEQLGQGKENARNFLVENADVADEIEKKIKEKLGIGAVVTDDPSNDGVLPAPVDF

[29] = target: T5, Bcl-2-related protein A1 (Mus musculus, UniProt Q07440); format: functional;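 note: confirmatory dose–response counterscreen on Bfl-1, used to check hits from a UBC13 polyubiquitin inhibitor campaign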
T5 sequence (Q07440 whole entry): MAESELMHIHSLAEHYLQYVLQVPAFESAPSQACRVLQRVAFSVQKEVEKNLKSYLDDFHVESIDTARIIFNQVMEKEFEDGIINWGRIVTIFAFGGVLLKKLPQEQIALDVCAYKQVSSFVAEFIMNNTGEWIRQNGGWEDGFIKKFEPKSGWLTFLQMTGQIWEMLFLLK

[30] = target: T6, Ubiquitin-conjugating enzyme E2 N (Homo sapiens, UniProt P61088); format: functional
T6 sequence (P61088 whole entry): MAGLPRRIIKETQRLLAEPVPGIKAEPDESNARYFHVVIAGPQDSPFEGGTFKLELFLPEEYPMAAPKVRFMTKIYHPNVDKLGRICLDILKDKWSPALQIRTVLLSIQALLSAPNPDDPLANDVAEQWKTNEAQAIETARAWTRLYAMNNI

[31] = target: T6, Ubiquitin-conjugating enzyme E2 N; format: functional; remark: listed apart in the source
[32] = THP-1 cell cytotoxicity, dose response, cytotoxicity control for non-replicating M. tuberculosis project (AID 489025); format: functional
[33] = Vero E6 cell cytotoxicity, dose response, cytotoxicity control for non-replicating M. tuberculosis project, secondary assay (AID 492998); format: functional, VeroE6; conditions: Vero C1008
[34] = target: Microphthalmia-associated transcription factor (Homo sapiens, UniProt O75030); experiment: reducers of TRPM1 reporter luminescence, concentration series – cell-based, SK-MEL-5, cherry-picked, set 3, MITF inhibitor project, dose response (AID 493073); format: functional;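 note: SK-MEL-5 melanoma cells with luciferase driven by the MITF target TRPM1 promoter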
[35] = cells; format: functional

CSc1ccc(NC(=O)c2ccc(CN3CCc4ccccc4C3)cc2)cc1
IC50 [1]: 0.372 µM (active) | IC50 [2]: 0.243 µM (active) | IC50 [3]: 7.86 µM (active)

O=C(Nc1ccccc1Cc1ccccc1)c1ccccc1NS(=O)(=O)c1ccc(Cl)s1
EC50 [4]: 0.659 µM (active) | EC50 [5]: > 150 µM (not active) | EC50 [6]: > 29.9 µM (inactive) | IC50 [7]: 2.17 µM (active) | EC50 [8]: 24.3 µM (not active) | EC50 [9]: 4.09 µM (active) | AC50 [10]: 0.706 µM (active) | AC50 [11]: 8.18 µM (active) | AC50 [12]: 14.7 µM (active) | AC50 [13]: 18.2 µM (active)

Cc1ccc(CSc2nc(O)c(C#N)c(-c3ccccc3)n2)cc1
EC50 [14]: 9.39 µM (active) | IC50 [15]: > 20 µM (inactive) | IC50 [16]: > 20 µM (inactive) | IC50 [17]: 12.9 µM (inactive) | IC50 [18]: > 20 µM (inactive) | IC50 [3]: > 20 µM (inactive)

N#C/C(=C\c1ccccn1)c1nc2ccccc2s1
EC50 [6]: 0.672 µM (active) | EC50 [8]: > 1.11 µM (not active)

COc1cc(C(=O)Oc2ccccc2/C=N/NC(=O)c2ccc(Cl)cc2)cc(OC)c1OC
IC50 [19]: 2.12 µM (active) | EC50 [20]: 9.29 µM (active) | IC50 [21]: 1.99 µM (active) | EC50 [22]: 1.31 µM (active) | EC50 [23]: > 350 µM (not active) | EC50 [24]: > 71.5 µM (inactive)

CCN(C[C@H]1N[C@@](CC)(C(=O)OC)[C@H]2C(=O)N(Cc3ccccc3)C(=O)[C@@H]12)S(=O)(=O)c1ccc(C(C)(C)C)cc1
AC50 [25]: 42.6 µM (active)

O=C(CCCN1C(=O)/C(=C\c2ccccc2)SC1=S)Nc1ccc(O)cc1
IC50 [26]: > 32 µM (inactive) | AC50 [27]: 39 µM (active) | EC50 [28]: 27.8 µM (active)

COc1ccccc1NC(=O)COc1ccc(C(=O)NCc2ccccc2)cc1OC
IC50 [29]: > 20 µM (inactive) | IC50 [30]: 13 µM (active) | IC50 [31]: > 20 µM (inactive)

Cc1ccc(C(=O)N/N=C\c2ccc([N+](=O)[O-])s2)cn1
CC50 [32]: 26.2 µM (active) | CC50 [33]: 13.1 µM (active) | AC50 [34]: 2.95 µM (active) | IC50 [35]: 4.87 µM (active)
